In data set [1] the test system is Vero cells. The conditions noted are these: for Cytotoxicity IC50 (CC50): African green monkey.
Data set [2] concerns PRV. Description: microbe, parasite or virus in culture. It counts as cell-based, Pseudorabies virus. The settings on record: for EC50: Suid alphaherpesvirus 1, Vero, 48 h, read-out: Antiviral Activity EC50.
Data set [3] has as its system several viruses. The settings on record: cited from earlier work.
Data set [4] is described as follows: in vitro. The conditions noted are these: African green monkey.
Data set [5] concerns PRV. It counts as cell-based, Pseudorabies virus.
The subject of data set [6] is various RNA and DNA viruses. The conditions noted are these: cited from earlier work.
The subject of data set [7] is PRV. Type of data set: cell-based, Pseudorabies virus. This is another data set of the same source.

Structures are written as SMILES. ≈ marks a conversion by molar mass, not a printed value.

What is called EC50 is the concentration needed to bring the measured effect to its halfway point. With `Nc1nc2c(ncn2COCCO)c(=O)[nH]1` [Acyclovir, reference compound], the “Cytotoxicity IC50 (CC50)” value in data set [1] was above 20 mg/L. The EC50 in data set [2] came to 2.96 ± 1.48 mg/L (≈ 13.1 µM).
Consider `COC[C@@]1(CCC(C)=C(C)C)Nc2ccc(C(N)=O)cc2C[C@H]1Cl` [Benzastatin C], for which the “antiviral activity against several viruses” value in data set [3] is “specific activities against several viruses”.
As to `COCC12CCC(C)(O)C(C)(C)C1Cc1cc(C(=O)O)ccc1N2` (stereo not drawn) [Compound 1, Virantmycin D], the “Cytotoxicity IC50 (CC50)” value in data set [1] was above 20 mg/L. In addition, the 50% effective concentration (EC50) in data set [2] is above 20 mg/L.
For `COCC(O)(CCC1(C)OC1(C)C)C1Cc2cc(C(=O)O)ccc2N1` (stereo not drawn) [Compound 2, Virantmycin E], in that order: above 20 mg/L and above 20 mg/L.
One may read the viability as a per cent measure of how many cells are alive, often set against a control. Regarding `COC[C@@]1(CCC(CO)=C(C)C)Nc2ccc(C(=O)O)cc2C[C@H]1Cl` [Compound 3, Virantmycin F], in data set [4], the viability is 80%. Also, the “Cytotoxicity IC50 (CC50)” value in data set [1] is above 20 mg/L. In data set [2], the concentration giving a half-maximal response (EC50) was 1.74 ± 0.25 mg/L (≈ 4.73 µM).
Take `COCC1(CCC(C)=C(C)C)Nc2ccc(C(=O)O)cc2CC1Cl` (stereo not drawn) [Compound 4, virantmycin]: in data set [5], the “virus infection in PRV-infected cells (indirect immunofluorescence)” value is listed as “significantly reduced”. Besides, the “antiviral activity against various RNA and DNA viruses” value in data set [6] was “significant antiviral activity”. For the same compound, in data set [1], the “toxic effect on the tested cells” value is “does not show any toxic effect” and the “Cytotoxicity IC50 (CC50)” value is above 20 mg/L. Also, in data set [2], the “cells alive (protection of Vero cells against PRV)” value is recorded as “more than 50%” and the concentration for a half-maximal effect (EC50) is below 0.31 mg/L. The “PRV proliferation (qPCR, PRV gE)” value in data set [7] is listed as “inhibits PRV proliferation in a dose–dependent manner”.
For `COC[C@@]1(CCC(C)=C(C)C)Nc2ccc(C(=O)O)cc2C[C@H]1O` [Compound 5, A-503451 D], the “Cytotoxicity IC50 (CC50)” value in data set [1] is above 20 mg/L. Also, in data set [2], the EC50 was above 20 mg/L.
Take `COC[C@@]1(CCC(C)=C(C)C)Nc2ccc(C(=O)O)cc2C[C@H]1OC(C)=O` [Compound 6, A-503451 D acetylate]: in data set [1], the “Cytotoxicity IC50 (CC50)” value is above 20 mg/L. For the same compound, in data set [2], the EC50 was above 20 mg/L.
For `COC[C@@](Cl)(CCC(C)=C(C)C)[C@@H]1Cc2cc(C(=O)O)ccc2N1` [Compound 7, A-503451 A], in data set [2], the half-maximal effective concentration (EC50) is 6.46 ± 1.38 mg/L (≈ 18.4 µM).
As to `COCC(O)(CCC(C)=C(C)C)C1Cc2cc(C(=O)O)ccc2N1` (stereo not drawn) [Compound 8, A-503451 B], in data set [1], the “Cytotoxicity IC50 (CC50)” value was above 20 mg/L. Moreover, the EC50 in data set [2] was above 20 mg/L.
Consider `NC(=O)c1ncn([C@@H]2O[C@H](CO)[C@@H](O)[C@H]2O)n1` [Ribavirin, reference compound], for which the “Cytotoxicity IC50 (CC50)” value in data set [1] was above 20 mg/L. In addition, in data set [2], the EC50 amounted to 4.44 ± 1.53 mg/L (≈ 18.2 µM).
Consider `COC[C@@]1(CCC(C)=C(C)C)Nc2ccc(C(N)=O)cc2C[C@H]1O` [benzastatin D], for which the “antiviral activity against several viruses” value in data set [3] was “inactive”.
